The values that follow come from patent US5902794A (priority 1997, dated 1999).

In data set [1] the test system is p21 ras protein (MCF-7 cells). The data set can be described thus: Western blotting of p21 ras protein in MCF-7 cells. The class given is cell-based, human. Conditions: 5 microM. The protocol:
(§1) Western blotting of p21 protein was performed as described below. […] V is cell lysate from Ha-MuSV-transformed NIH3T3 clone 13-3B-4. M, marker proteins of known molecular weight.
Cellular proteins present in cell extracts were separated by 12% SDS-PAGE and transferred to nitrocellulose sheets in transfer buffer (25 mM Tris, 192 mM glycine, 20% methanol, pH 7.4). Nitrocellulose sheets were washed and first incubated with 3% bovine serum albumin in NTE-NP40 (50 mM Tris-HCl, pH 7.5, 150 mM NaCl, 2 mM EDTA, 0.1% Nonidet P-40) for three hours at 37° C. and then sequentially incubated with medium containing p21 monoclonal antiserum Y13-259 directed against the Ha-MuSV-encoded p21 for sixteen hours at 4° C., rabbit anti-rat IgG for 2.5 hours in an ice-water bath, and 5×10^5 cpm/ml ^125 I-protein A for one hour in an ice-water bath. The nitrocellulose sheets were air-dried and exposed to Kodak XAR film for 12-36 hours at -20° C. Comparison of the resulting autoradiograms with others in which normal rat serum was substituted for p21 monoclonal antibody permitted identification of p21. To provide a reference p21, cell lysates were prepared from NIH 3T3 clone 13-3B-4 that had been transfected with Ha-MuSV DNA.
The levels of p21 protein are expressed relative to the p21 level in the untreated control cells, which is set equal to 1.0 O.D.
(In general: In western blotting, separated proteins are transferred to a membrane and probed.)

The test system of data set [2] is LS-174T colon cancer line. Briefly: growth inhibition and release from inhibition, LS-174T (FIG. 3). The class given is cell-based, human. On the procedure:
1×10^5 cells/60 mm dish were seeded, and 24 hours later (Day 0), the medium was removed and fresh medium and additives were added then and every 48 hours thereafter. […] The triplicate cell count for each experimental point never varied by more than 10%.
(§2) All breast cancer cell lines were grown in IMEM supplemented with 10% fetal bovine serum, 20 mM HEPES, penicillin-streptomycin, and extra glutamine. Colon carcinoma cell lines were grown in EMEM supplemented with 10% FBS, EMEM, NEAA, HEPES 20 mM, extra glutamine, and penicillin-streptomycin. The cells were grown at 37° C. in humidified incubators in an atmosphere of 5% CO2.

For data set [3], the system named is MCF-7 cells. Briefly: growth of MCF-7 cells. The settings on record: 5 microM. The class given is cell-based, human. The protocol: as §1, §2
For cell growth experiments, 2-3×10^5 cells/60 mm dish were seeded, and 24 hours later (Day 0), the medium was removed, and fresh medium and the additives were added then and every 48 hours thereafter The compounds of the present invention were added using 100× concentrated stock solutions. At desired times, cell counts in duplicate were performed on a Coulter counter after harvesting the cells with gentle trypsinization.

The subject of data set [4] is LS-174T colon cancer cells. The data set can be described thus: cell cycle analysis, LS-174T. The settings on record: 8-Cl-adenosine 5 μM, 3 days, two separate experiments. It counts as cell-based, human. The protocol: (§3) DNA histograms were generated on FACS II by using the DNA intercalating dye propidium iodide as described by Braylan et al. (Cytometry 2: 337-343, 1982). The percentage of cells in each cycle phase was calculated by using a PDP-11/34 computer and software as described by Neckers et al. (Mol. Cell. Biol. 6: 4244-4250, 1986).
Breast (MCF-7, MDA-MB-231) and colon (LS-174T) cancer cells in
log phase (untreated control) and 3 days after treatment with
(5 μM) were analyzed for DNA content by flow cytometric analysis

Data set [5] concerns breast and colon cancer cell lines. The data set can be described thus: cell cycle progression of breast and colon cancer cell lines. It counts as cell-based, human. The settings on record: vs untreated control cells. The protocol: as §3
A determination was made whether the reduced cell proliferation observed in the cancer cell lines after treatment with the compounds of the present invention is due to a specific block in one phase of the cell cycle.

The test system of data set [6] is c-myc protein. The data set can be described thus: c-myc protein level, Western blotting (FIG. 9B). It counts as cell-based, human. Conditions: growth-arrested by 8-Cl-adenosine (5 micromol/L). The protocol: The cells were grown in suspension culture in RPMI 1640 medium supplemented with 10% fetal bovine serum, penicillin (50 U/ml), streptomycin ([…]), 10 mmol/L HEPES buffer, and extra glutamine. […] Surface antigen analysis of HL-60 cells was performed by flow cytometry using a panel of monoclonal antibodies reactive with either myeloid cells or monocytic cells. Terminal deoxynucleotidyl transferase (TdT) was assayed by an immunoperoxidase method using a TdT fluorescence kit. Western blotting of c-myc protein was performed using c-myc antibody 15206D11 (Scripps Clinic and Research Foundation, LaJolla, Calif.).
(§4) M marker proteins of known molecular weight. […] The resulting supernatants were used as cell lysates. […] ND=nondetectable.

Data set [7] relates to R^I cAMP receptor protein (Molt-4). The data set can be described thus: R^I cAMP receptor protein in Molt-4 leukemic cells. The class given is cell-based, human. Conditions: growth-arrested by 8-Cl-adenosine (5 micromol/L).
Text: as §4

In data set [8] the test system is MX-1 mammary carcinoma. The data set can be described thus: growth of MX-1 human mammary tumor xenograft. It counts as in vivo. The settings on record: 7 days, staging day. On the procedure: (§5) Based on the findings with the L1210 leukemia model, the efficacy of the 8-Cl-cAMP-Na+ infusions were evaluated in advanced-stage human tumor xenograft models. Tumor fragments of approximately 14 mg were implanted subcutaneously in athymic CD-1 female mice and seven day intraperitoneal infusions of the cyclic nucleotide were initiated three weeks later when mean tumor weights had reached 300-400 mg. Tumor measurements were recorded on the initial day of treatment (staging day) and one day after treatment was completed (staging day+7), and were used to calculate changes in tumor weights.
(§6) *Mean tumor weight per group on staging day.
(§7) $Mean tumor weight per group on staging day +7.
(§8) **Change in *test tumor wt (finalinitial)/initial test tumor wt. Used
(§9) where test tumor size was reduced during treatment. Denoted by negative
(§10) $$Change in test tumor wt/change in control tumor wt. Used where test
(§11) tumor size increased during treatment. Denoted by positive value.

For data set [9], the system named is MDA-MB-231 mammary carcinoma. Briefly: growth of MDA-MB-231 human mammary tumor xenograft. The class given is in vivo. The settings on record: 7 days, staging day. On the procedure: as §5, §6, §7, §8, §9, §10, §11
For orientation: A xenograft is tissue or cells of one species grown in another, often human tumour cells in immunodeficient mice.

Data set [10] concerns murine leukemia L1210. Briefly: life span of L1210-inoculated BDF1 mice. It counts as in vivo, mouse. Conditions: for toxicity remark: ip, 24-hr infusion, day 1-5. The source says:
| Infusions by Harvard pumps.

A short description of data set [11]: lethality in non-tumored BDF1 mice, single i.p. injection. The class given is in vivo, mouse. The settings on record: qd, day 1; for Toxic deaths, No. killed/No. treated: ip. The source says: Influence of 8-Cl-cAMP-Na^+ on the life span of non-tumor
BDF1 mice when delivered i.p. by bolus injection

The subject of data set [12] is LOVO Colon carcinoma. The data set can be described thus: growth of LOVO human colon tumor xenograft. The class given is in vivo. Conditions: 7 days; for Initial Mean Tumor Wt: staging day. On the procedure: as §5, §6, §7
(§12) **Change in test tumor wt (final initial)/initial test tumor wt. Used
(§13) where tumor size was reduced during treatment. Denoted by negative value.
as §10, §11

The test system of data set [13] is two mammary, one lung, and one colon tumor. Briefly: human tumor xenografts in athymic mice. The class given is in vivo. The settings on record: seven day intraperitoneal infusions. The protocol: as §5
The subject of data set [14] is human LoVo colon tumors. Briefly: subcutaneous infusion in athymic NCR-NU mice bearing human LoVo colon tumors. The class given is in vivo. The settings on record: s.c. infusion approx. 42 mg/kg/day (1 mg/mouse), seven days.
Data set [15] concerns LX-1-Lung carcinoma. Briefly: growth of LX-1 human lung tumor xenograft. Conditions: 7 days, staging day. It counts as in vivo. The protocol: as §5, §6, §7, §12, §13, §10, §11

For the compound `Nc1ncnc2c1nc(Cl)n2[C@@H]1O[C@H](CO)[C@@H](O)[C@H]1O` [8-Cl-adenosine, reference compound], the “p21 level, in words” value in [1] is “did not appreciably affect the p21 level”. Moreover, the “mechanism of growth inhibition / cell viability” value in [2] was “cell killing”. In addition, in data set [2] (8-Cl-cAMP 10 microM or 8-Cl-adenosine 5 microM), the “cell growth during treatment” value is “marked reduction in cell growth”. Besides, in [2] (after removal of additives), the “growth after cessation of treatment” value was “remained growth-inhibited and did not resume their growth up to two weeks”. Moreover, the “growth inhibition, in words” value in data set [3] is given as “strong growth inhibition”. In addition, in [4], the “% Cell population in G1” value is 72,68%, the “% Cell population in G2 M” value was 20,18% and the “% Cell population in S” value was 8,14%. Besides, in [4] (Homo sapiens, LS174T, 72 h, read-out: % Growth), the activity at 5 µM was 30.3%. Besides, the “fractions of cells in G1, S and G2/M phases, in words” value in data set [5] is recorded as “appreciable increase of the cell population in Gl phase with a marked reduction in S-phase”. The “decrease in c-myc protein level” value in data set [6] was “not observed”. The “decrease in R^I receptor level” value in data set [7] is “not observed”.

`Nc1ncnc2c1nc(Cl)n2[C@@H]1O[C@@H]2COP(=O)(O)O[C@H]2[C@H]1O` [8-Cl-cAMP-Na^+]: the “Initial Mean Tumor Wt” value is listed as 337 mg in data set [8] (62 mg/kg/day ip infusion); 346 mg in data set [8] (104 mg/kg/day ip infusion); 375 mg in [8] (173 mg/kg/day ip infusion); 367 mg in [9] (37 mg/kg/day ip infusion); 375 mg in [9] (62 mg/kg/day ip infusion); 367 mg in data set [9] (104 mg/kg/day ip infusion). The “Initial Mean Tumor Wt” value is given as 288 mg in [12] (37 mg/kg/day ip infusion); 293 mg in [12] (62 mg/kg/day ip infusion); 288 mg in [12] (104 mg/kg/day ip infusion); 330 mg in data set [15] (37 mg/kg/day ip infusion); 327 mg in data set [15] (62 mg/kg/day ip infusion); 324 mg in [15] (104 mg/kg/day ip infusion). The “mice killed (footnote)” value in data set [10] (288 mg/kg, infused) is 2 to 5 mice; in [11] (173 mg/kg), 2 of 5. Besides, the toxicity remark result in [10] (288 mg/kg/day), in data set [10] (480 mg/kg/day) and in [10] (800 mg/kg/day) was “toxic” in each case. For the same compound, the “lethality (footnote)” value is given as “lethally toxic for all treated mice” in [10] (800 and 480 mg/kg, infused); “lethally toxic for all treated mice” in [11] (480 and 288 mg/kg); “not lethally” in [11] (dosages lower than 173 mg/kg). In addition, the “Toxic deaths, No. killed/No. treated” value in [11] (22 mg/kg/inj) was 0; in data set [11] (37 mg/kg/inj), 0; in data set [11] (62 mg/kg/inj), 0; in data set [11] (104 mg/kg/inj) it was 0; in [11] (173 mg/kg/inj), 2/5; in data set [11] (288 mg/kg/inj) it was 5/5. Moreover, the “Toxic deaths, No. killed/No. treated” value in [11] (480 mg/kg/inj) is on record as 5/5. The “% ΔT/T or % ΔT/ΔC” value in [12] (37 mg/kg/day ip infusion) and in [12] (62 mg/kg/day ip infusion) was -01% each time. Further, the “tumor growth during infusion, in words” value in data set [13] is given as “tumor stasis during treatment”. Also, the toxicity entry in data set [14] is on record as “appeared to be toxic”.
